Active and inactive are the calls of the source. The calls are words filed in the database; no cut-off is given here.
What was measured:
[1] = Dissociation constant, pKa of the compound for carboxyl group by potentiometric titration analysis; type: physicochemical
[2] = target: cathepsin L (Homo sapiens, UniProt P07711); test: Inhibition of recombinant human cathepsin L expressed in FreeStyle 293-F cells using Z-FR-AMC as substrate at 100 uM preincubated for 10 mins followed by substrate addition and measured for 20 mins by fluorimetry; details: probe Z-FR-AMC, time 30 min
[3] = target: Cruzipain (Trypanosoma cruzi, UniProt P25779); test: Inhibition of Trypanosoma cruzi cruzain using Z-FR-AMC as substrate preincubated for 10 mins followed by substrate addition and measured every 5 secs for 10 mins by fluorimetry
[4] = target: Cruzipain (Trypanosoma cruzi) (UniProt P25779); test: Inhibition of Trypanosoma cruzi cruzain at 100 uM using Z-FR-AMC as substrate preincubated for 10 mins followed by substrate addition and measured every 5 secs for 10 mins by fluorimetry; details: time 20.0 min
[5] = target: Cruzipain (Trypanosoma cruzi) (UniProt P25779); test: Inhibition of Trypanosoma cruzi cruzain at 100 uM using Z-FR-AMC as substrate measured every 5 secs for 10 mins by fluorimetry
[6] = target: Cruzipain (Trypanosoma cruzi) (UniProt P25779); test: Covalent reversible inhibition of Trypanosoma cruzi cruzain using Z-FR-AMC as substrate at 0.1XIC50 and measured at 10 mins post-dilution by jump dilution assay
[7] = target: Cruzipain (Trypanosoma cruzi) (UniProt P25779); test: Covalent reversible inhibition of Trypanosoma cruzi cruzain assessed as recovery of enzyme activity using Z-FR-AMC as substrate at 0.1XIC50 and measured for 2 hrs by jump dilution assay
[8] = tested on: Trypanosoma cruzi; test: Antitrypanosomal activity against Trypanosoma cruzi Tulahuen trypomastigotes expressing Escherichia coli beta-galactosidase infected in African green monkey Vero cells incubated for 72 hrs by ONPG dye based microplate reader analysis; type: functional, organism-based
[9] = Cytotoxicity against African green monkey Vero cells assessed as cell viability at 50 uM incubated for 96 hrs by resazurin dye based fluorescence analysis relative to control; type: toxicity; details: chlorocebus sabaeus, read-out: Activity
[10] = Dissociation constant, pKa of the compound for secondary ammonium by potentiometric titration analysis; type: physicochemical
[11] = tested on: Trypanosoma cruzi; test: Antitrypanosomal activity against Trypanosoma cruzi Tulahuen trypomastigotes expressing Escherichia coli beta-galactosidase infected in African green monkey Vero cells at 10 uM incubated for 72 hrs by ONPG dye based microplate reader analysis; type: functional
[12] = tested on: Trypanosoma cruzi; test: Antitrypanosomal activity against Trypanosoma cruzi Tulahuen trypomastigotes expressing Escherichia coli beta-galactosidase infected in African green monkey Vero cells at 50 uM incubated for 72 hrs by ONPG dye based microplate reader analysis; type: functional

Sequence of Cruzipain (P25779 whole entry): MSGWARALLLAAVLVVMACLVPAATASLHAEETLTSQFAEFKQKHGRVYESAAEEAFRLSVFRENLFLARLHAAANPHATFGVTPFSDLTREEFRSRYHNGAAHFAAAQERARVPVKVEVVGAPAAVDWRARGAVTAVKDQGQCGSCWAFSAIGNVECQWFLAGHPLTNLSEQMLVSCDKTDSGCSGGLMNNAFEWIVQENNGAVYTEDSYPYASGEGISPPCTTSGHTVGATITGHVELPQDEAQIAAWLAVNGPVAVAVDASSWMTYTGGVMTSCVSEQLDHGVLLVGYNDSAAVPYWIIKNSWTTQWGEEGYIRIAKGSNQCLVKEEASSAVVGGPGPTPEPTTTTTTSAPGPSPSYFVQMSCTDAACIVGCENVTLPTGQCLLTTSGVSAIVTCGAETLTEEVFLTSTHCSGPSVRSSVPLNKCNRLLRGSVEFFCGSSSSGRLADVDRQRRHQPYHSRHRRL
Sequence of cathepsin L (P07711 whole entry): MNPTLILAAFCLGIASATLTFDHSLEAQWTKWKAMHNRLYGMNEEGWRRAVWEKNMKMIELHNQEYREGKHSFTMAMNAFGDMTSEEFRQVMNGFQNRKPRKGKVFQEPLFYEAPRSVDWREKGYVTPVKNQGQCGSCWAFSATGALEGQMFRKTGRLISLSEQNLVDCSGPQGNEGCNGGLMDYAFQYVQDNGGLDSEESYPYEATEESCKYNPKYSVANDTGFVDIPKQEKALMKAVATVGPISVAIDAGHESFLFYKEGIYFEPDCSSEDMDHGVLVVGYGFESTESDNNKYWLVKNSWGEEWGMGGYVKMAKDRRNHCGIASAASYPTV
Sequence of Cruzipain (Trypanosoma cruzi) (P25779 123-467 limits assumed): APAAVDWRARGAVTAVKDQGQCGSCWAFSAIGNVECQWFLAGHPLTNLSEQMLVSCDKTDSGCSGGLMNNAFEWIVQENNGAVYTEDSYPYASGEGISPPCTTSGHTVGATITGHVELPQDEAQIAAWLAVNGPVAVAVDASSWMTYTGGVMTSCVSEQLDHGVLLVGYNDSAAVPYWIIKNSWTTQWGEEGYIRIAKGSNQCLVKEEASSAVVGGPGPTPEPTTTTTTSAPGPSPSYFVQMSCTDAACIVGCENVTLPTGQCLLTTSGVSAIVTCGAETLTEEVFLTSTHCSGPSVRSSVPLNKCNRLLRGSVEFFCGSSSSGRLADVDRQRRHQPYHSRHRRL

SMILES	IC50 [3] [µM]	inhibition [4] [%]	inhibition [5] [%]	inhibition at 20 min, 100 µM [2] [%]	further results
O=C(O)[C@H](CSC(c1ccccc1)(c1ccccc1)c1ccccc1)n1cc(C(NCc2ccc3c(c2)OCO3)C2CCCCC2)nn1 (stereo partly drawn)	6	–	–	100	pKa [1]: 3
COc1ccc(COC(=O)[C@H](CS)n2cc(C(NCc3ccc4c(c3)OCO4)C3CCCCC3)nn2)cc1 (stereo partly drawn)	–	28	–	–	–
SC[C@@H](Cc1ccccc1)n1cc(C(NCc2ccc3c(c2)OCO3)C2CCCCC2)nn1 (stereo partly drawn)	7	79	12	0	–
NCCCC[C@@H](C=O)n1cc(C(NCc2ccc3c(c2)OCO3)C2CCCCC2)nn1 (stereo partly drawn)	3.3	–	–	–	IC50 [8]: 3.2 µM

Continued, in another order:

IC50 [3] [µM]	inhibition [4] [%]	inhibition [5] [%]	SMILES	inhibition at 20 min, 100 µM [2] [%]	further results
0.028	100	13	O=C(O)[C@H](CS)n1cc(C(NCc2ccc3c(c2)OCO3)C2CCCCC2)nn1 (stereo partly drawn)	0	pKa [1]: 4; inhibition [6]: inactive; inhibition [7]: Active; IC50 [8]: 6.67 µM; viability at 96 h, 50 µM [9]: 80%; pKa [10]: 8.1; inhibition at 10 µM [11]: 76%; inhibition at 50 µM [12]: 98%
–	43	6	CC(C)[C@H](CS)n1cc(C(NCc2ccc3c(c2)OCO3)C2CCCCC2)nn1 (stereo partly drawn)	–	–
–	46	3	CCOC(=O)[C@H](CS)n1cc(C(NCc2ccc3c(c2)OCO3)C2CCCCC2)nn1 (stereo partly drawn)	–	–
–	53	6	COC(=O)[C@H](CS)n1cc(C(NCc2ccc3c(c2)OCO3)C2CCCCC2)nn1 (stereo partly drawn)	–	–

From ChEMBL document CHEMBL6153059, “Discovery of a Potent Triazole-Based Reversible Targeted Covalent Inhibitor of Cruzipain” (ACS Med Chem Lett, 2025)
